{"source": "patent US11453674B2", "about": "“Heterocyclic compound, preparation method and use thereof in medicine” (SUZHOU SINOVENT PHARMACEUTICALS CO., LTD., priority 2019, dated 2022)", "data": [{"tested_on": "primary human hepatocytes", "assay": "Cytotoxicity assay on primary human hepatocytes (CellTiter-Glo, 48 h)", "assay_type": "cell-based", "conditions": "Hepatocyte, cell viability, 48 h incubation", "description": "Example 26: Cytotoxicity Assay of Compounds on Primary Human Hepatocytes\nPrimary human hepatocytes were purchased from Biorecamation IVT. Co., Ltd. (lot no.: AKB/S1391); the components of in vitro culture media of primary human cell and suppliers are as follows:\n1. Frozen primary human hepatocytes were thawed, then resuspended in a culture medium containing 10% FBS. The cells were transferred into a 96-well plate, at 8×10^4 cells/well, followed by incubating overnight in an incubator at 5% CO2 at 37° C.;\n2. […] The test compounds and control drug were added to wells, at 100 μL/well, to form test compound wells or reference wells, and the culture medium containing 10% FBS was added to wells, at 100 μL/well, as negative control. The cells were incubated in an incubator in the presence of 5% CO2 at 37° C. for 48 h.\n3. The primary human hepatocytes were washed with PBS (0.1 M, pH=7.4) twice, and were added with CellTiter-Glo reagent at 100 μL/well. Cell-free wells added with CellTiter-Glo reagent at 100 μL/well served as the blank control. The 96-well plate was shaken on a shaker for 5 min, and then left at room temperature for 10 min.\n4. The chemiluminescence values were detected using Victor X4 (Perkin Elmer). The chemiluminescence values of the test compound wells were denoted as F(test compound), the chemiluminescence values of the blank control wells were denoted as F(blank), and the chemiluminescence values of the negative control wells were denoted as F(negative control). The cell viabilities at different concentrations were calculated according to the following formula. Each concentration was measured in triplicate to give the average and the standard deviation.\n5. The half maximal inhibitory concentration (IC50) of the test compounds to the primary human hepatocytes were calculated using Prism Graph software.", "units": {"IC50": "µM"}, "values": [{"smiles": "CCc1nc2ncc(F)cn2c1C(=O)c1cc(Br)c(O)c(Br)c1", "note": "[Example 4, (3,5-dibromo-4-hydroxyphenyl)(2-ethyl-6-fluoroimidazo[1,2-a]pyrimidin-3-yl)methanone]", "IC50": 257}, {"smiles": "CCc1nc2ncc(C(F)(F)F)cn2c1C(=O)c1cc(Br)c(O)c(Br)c1", "note": "[Example 5, (3,5-dibromo-4-hydroxyphenyl)(2-ethyl-6-(trifluoromethyl)imidazo[1,2-a]pyrimidin-3-yl)methanone]", "IC50": 77.8}, {"smiles": "CCc1nc2ncc(F)cn2c1C(=O)c1cc(Br)c(O)c(C#N)c1", "note": "[Example 14, 3-bromo-5-(2-ethyl-6-fluoroimidazo[1,2-a]pyrimidine-3-carbonyl)-2-hydroxybenzonitrile]", "IC50": "≥ 1000"}, {"smiles": "CCc1nc2cc(Cl)ncn2c1C(=O)c1cc(Br)c(O)c(Br)c1", "note": "[Example 21, (7-chloro-2-ethylimidazo[1,2-f]pyrimidin-3-yl)(3,5-dibromo-4-hydroxyphenyl)methanone]", "IC50": 347}]}]}
